In ChEMBL document CHEMBL5303304, “EUbOPEN Chemogenomics Library - IncuCyte” (2023):

Key:
Type in all cases: toxicity, cell-based
[1] = system: HEK-293T; experiment: Incucyte cell viability with HEK293T; conditions: human, 10 µM, compound concentration 10 uM
[2] = system: Fibroblast; experiment: Incucyte cell viability with human fibroblast; conditions: 10 µM, compound concentration 10 uM
[3] = system: U2OS; experiment: Incucyte cell viability with U2OS; conditions: human, 10 µM, compound concentration 10 uM
Note: unitless GR value; below 1 slowed growth and below 0 cell loss.

Row | Structure (SMILES) | Growth Rate ([1]; 0 h, replicate number 1) | Growth Rate ([1]; 0 h, replicate number 2) | Growth Rate ([1]; 6 h, replicate number 2) | Growth Rate ([1]; 12 h, replicate number 2) | Growth Rate ([2]; 6 h, replicate number 1) | Growth Rate ([2]; 6 h, replicate number 2) | Growth Rate ([2]; 12 h, replicate number 1) | Growth Rate ([2]; 12 h, replicate number 2) | Growth Rate ([2]; 18 h, replicate number 1) | Growth Rate ([2]; 18 h, replicate number 2) | Growth Rate ([2]; 24 h, replicate number 1) | Growth Rate ([2]; 24 h, replicate number 2) | Growth Rate ([3]; 6 h, replicate number 1) | Growth Rate ([3]; 12 h, replicate number 1) | Growth Rate ([3]; 0 h, replicate number 1) | Growth Rate ([3]; 6 h, replicate number 2) | Growth Rate ([3]; 24 h, replicate number 1) | Growth Rate ([3]; 12 h, replicate number 2) | Growth Rate ([3]; 18 h, replicate number 1) | Growth Rate ([3]; 24 h, replicate number 2) | also measured
1 | CC[C@H]1[C@@H](O)[C@@H]2[C@H](CC[C@]3(C)[C@@H]([C@H](C)CCC(=O)O)CC[C@@H]23)[C@@]2(C)CC[C@@H](O)C[C@@H]12 [OBETICHOLIC ACID] | 0.42 | -0.65 | 0.83 | 0.96 | 0.39 | 0.74 | 0.91 | 0.62 | 0.82 | 0.87 | 0.9 | 0.95 | -0.88 | 0.87 | – | – | – | – | – | – | –
2 | Oc1ccc(-c2nc(-c3ccncc3)c(-c3ccc(F)cc3)[nH]2)cc1 [SB-202190] | 0 | -0.17 | – | – | 0.11 | – | -0.11 | 0.62 | – | – | – | – | – | – | -0.88 | – | – | – | – | – | Growth Rate ([2]; 0 h, replicate number 2): -0.18; Growth Rate ([3]; 0 h, replicate number 2): -0.95
3 | CCn1c(CNC(=O)c2nc(Cl)cnc2N)[n+](CC)c2ccc(C(=O)N(C)CCN(C)C)cc21.[Cl-] | 0.65 | 0.44 | 0.55 | 0.57 | – | -0.24 | – | 0.59 | – | 0.7 | – | 0.96 | 0.28 | 0.84 | 0.81 | 0.97 | 0.84 | – | – | – | Growth Rate ([1]; 18 h, replicate number 2): 0.77; Growth Rate ([1]; 24 h, replicate number 2): 0.84; Growth Rate ([2]; 0 h, replicate number 2): -0.38
4 | c1cc(-c2cnn3cc(-c4ccc(N5CCNCC5)cc4)cnc23)c2cccnc2c1 | -0.92 | 0.43 | -0.96 | -0.77 | -0.19 | -1 | -1 | -0.91 | -0.44 | -0.74 | 0.25 | -0.55 | -0.87 | -0.69 | -0.73 | -0.62 | -0.49 | -0.61 | -0.57 | -0.43 | Growth Rate ([1]; 6 h, replicate number 1): -0.69; Growth Rate ([1]; 12 h, replicate number 1): -0.55; Growth Rate ([1]; 18 h, replicate number 1): -0.44; Growth Rate ([1]; 18 h, replicate number 2): -0.58; Growth Rate ([1]; 24 h, replicate number 1): -0.34; Growth Rate ([1]; 24 h, replicate number 2): -0.45; Growth Rate ([2]; 0 h, replicate number 2): -0.9; Growth Rate ([3]; 18 h, replicate number 2): -0.48
5 | CN(CC(=O)Nc1ccc(F)c(F)c1F)C(=O)c1ccc2c(c1)OCCO2 | – | – | – | – | – | 0.54 | – | 0.55 | 0.79 | 0.78 | – | 0.87 | 0.07 | 0.45 | -0.71 | – | 0.95 | – | 0.76 | – | Growth Rate ([1]; 6 h, replicate number 1): 0.37; Growth Rate ([1]; 12 h, replicate number 1): 0.74; Growth Rate ([1]; 18 h, replicate number 1): 0.93
6 | Cc1nnc2n1-c1sc(CCC(=O)N3CCOCC3)cc1C(c1ccccc1Cl)=NC2 [APAFANT] | – | -0.56 | – | – | – | – | – | – | 0.73 | – | 0.8 | – | 0.58 | 0.67 | 0.87 | 0.99 | 0.88 | 0.76 | 0.88 | 0.98 | Growth Rate ([1]; 12 h, replicate number 1): 0.78; Growth Rate ([2]; 0 h, replicate number 2): -0.81
7 | O=C(CCSCc1ccco1)NNC(=O)N1Cc2ccccc2Oc2ccc(Cl)cc21 | – | – | – | – | 0.64 | -0.43 | 0.82 | 0.45 | 0.92 | 0.53 | 0.8 | 0.72 | 0.95 | – | – | – | – | 0.92 | – | 0.92 | Growth Rate ([1]; 18 h, replicate number 1): 0.93; Growth Rate ([1]; 24 h, replicate number 1): 0.96; Growth Rate ([2]; 0 h, replicate number 1): -1
8 | Cc1ccc(-n2nc(C(C)(C)C)cc2NC(=O)Nc2ccccc2F)cc1 | -0.4 | – | – | – | -0.08 | 0.02 | 0.68 | 0.82 | 0.86 | – | 0.91 | – | 0.9 | 0.91 | – | 0.67 | 0.72 | 0.72 | 0.79 | 0.85 | Growth Rate ([3]; 0 h, replicate number 2): -0.52
9 | N#Cc1cccc(-c2nc(-c3cccnc3)no2)c1 | – | – | 0.1 | 0.6 | – | 0.7 | -0.97 | 0.88 | -0.08 | 0.55 | 0.19 | 0.92 | – | 0.67 | – | – | – | – | – | – | Growth Rate ([1]; 6 h, replicate number 1): 0.4; Growth Rate ([1]; 18 h, replicate number 2): 0.95; Growth Rate ([2]; 0 h, replicate number 1): -0.49; Growth Rate ([3]; 0 h, replicate number 2): -0.52; Growth Rate ([3]; 18 h, replicate number 2): 1
10 | Oc1c(CN2CCCC2)cc(COCc2ccccc2)c2cccnc12 | – | -0.99 | 0.05 | -0.05 | – | – | – | – | 0.96 | – | 0.83 | 0.6 | 0.93 | 0.55 | 0.25 | 0.91 | 0.79 | 0.58 | 0.93 | 0.54 | Growth Rate ([1]; 6 h, replicate number 1): 0.34; Growth Rate ([1]; 12 h, replicate number 1): -0.04; Growth Rate ([1]; 18 h, replicate number 1): -0.09; Growth Rate ([1]; 18 h, replicate number 2): -0.21; Growth Rate ([1]; 24 h, replicate number 1): -0.18; Growth Rate ([1]; 24 h, replicate number 2): -0.25; Growth Rate ([2]; 0 h, replicate number 1): 0.87; Growth Rate ([3]; 18 h, replicate number 2): 0.56
11 | CCOC(=O)c1cnn(-c2ccc(NC(=O)C(Cl)=C(Cl)Cl)cc2)c1C(F)(F)F | – | – | -0.52 | -0.37 | – | -1 | -1 | -0.86 | – | -0.7 | – | -0.57 | -0.33 | -0.42 | -0.17 | 0.04 | -0.43 | -0.46 | -0.49 | -0.42 | Growth Rate ([1]; 6 h, replicate number 1): -0.63; Growth Rate ([1]; 12 h, replicate number 1): -0.5; Growth Rate ([1]; 18 h, replicate number 1): -0.51; Growth Rate ([1]; 18 h, replicate number 2): -0.25; Growth Rate ([1]; 24 h, replicate number 1): -0.51; Growth Rate ([1]; 24 h, replicate number 2): -0.13; Growth Rate ([3]; 0 h, replicate number 2): 0.55; Growth Rate ([3]; 18 h, replicate number 2): -0.43
